Non-standard residues stand in square brackets, D forms with d. Residues, ends and D or L forms follow the SMILES beside them. No end group written: not given here.
Columns and labels:
Assay type in all cases: cell-based
[1] = test system: mouse red blood cells
Procedure: Red blood cells were diluted with PBS, centrifuged 3 times at 900 g for 10 minutes, and washed. 100 μl of the diluted red blood cell solution (10% v/v PBS) was dispensed into each well of a 96-well microplate, and KU-5878, KU-5878-K4, KU-5878-K4-D, melittin, magainin 2 or daptomycin was added to each well which was then filled with PBS to 200 μl, followed by reaction by incubation at 37° C. for 1 hour. Then, the supernatant of the reaction solution was separated, and the absorbance at a wavelength of 550 nm was measured using a spectrophotometer. As control, PBS and 0.1% Triton X-100 (Triton X-100) solution were used.
Based on the results of measurement of the absorbance, the degree of red blood cell destruction was calculated according to Equation 1 below, and the results of the calculation are shown in FIG. 6. % The intact RBC=100(%)−[(absorbance of peptide-treated red blood cell solution−absorbance of PBS-treated red blood cell solution)/(absorbance of Triton X-100-treated red blood cell solution−absorbance of PBS-treated red blood cell solution)×100(%)] [Equation 1]

[2] = test system: Methicillin-resistant Staphylococcus aureus (MRSA, ATCC 33591); assay: Minimum bactericidal concentration (MBC) assay; set-up: unit: µg/mL
Method in brief: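 Peptide at 0 to 300 μg/ml reacted 1 h at 37 °C with 1×10^5 CFU/ml bacteria in SP buffer (10 mM sodium phosphate, 1% TSB), bacteria pre-grown in 3% TSB. Aliquots then spread on TS agar and checked for colonies after 18 h at 37 °C.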

[3] = test system: CRPA; assay: Minimum bactericidal concentration (MBC) assay; set-up: unit: µg/mL
[4] = test system: Pseudomonas aeruginosa (ATCC 27853); assay: Minimum bactericidal concentration (MBC) assay; set-up: MBC Pseudomonas aeruginosa: unit: µg/mL
Method in brief: (§1)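 Peptide, 0–300 μg/ml, + bacteria at 1×10^5 CFU/ml in 10 mM sodium phosphate/1% TSB, 1 h, 37° C. Spot onto TS agar, 37° C 18 h. MBC: lowest conc. w/o colony growth. Strains pre-grown in 3% TSB.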

[5] = test system: Pseudomonas aeruginosa, Staphylococcus aureus, CRPA, MRSA; assay: Increase in antibacterial activity (MBC) compared with KU-5878
[6] = test system: Staphylococcus aureus (ATCC 29213); assay: Minimum bactericidal concentration (MBC) assay; set-up: MBC Staphylococcus aureus: unit: µg/mL
Method in brief: as §1

[7] = test system: Klebsiella pneumoniae (ATCC 13883); details: ATCC 13883, 4 h
Procedure: (§2) Specifically, each type of bacteria was cultured in 3% (w/v) TSB (tryptic soy broth) liquid medium at 37° C. and 200 rpm for 4 hours, and then further cultured under the same conditions for 3 hours to a concentration of 5×10^6 CFU/ml. Strain solutions were prepared by diluting each of the further cultured strains with SP buffer to a final concentration of 2×10^5 CFU/ml.
(§3) Then, the KU-5878 peptide at varying concentrations (0 μg/ml to 300 μg/ml) was dispensed into each well of a 96-well microplate, and 100 μl (1×10^5 CFU/ml) of each of the prepared strain solutions was added thereto, mixed therewith, and allowed to react with the peptide in an incubator at 37° C. for 1 hour.
(§4) In addition, 10 μl of each reaction solution of the peptide and the strain was plated on the TS agar plate at a constant size, and incubated in an incubator at 37° C. for 18 hours, and then colony formation on the plate was checked. The minimum bactericidal concentration was defined as the minimum concentration of the peptide at which no colony was formed, and the experimental results are shown in Table 2 below.

[8] = test system: Enterococcus faecium (ATCC 19434); details: ATCC 19434, 4 h
Procedure: as §2, §3, §4

[9] = test system: Escherichia coli (ATCC 25922); details: ATCC 25922, 4 h
Procedure: as §2, §3, §4

[10] = test system: Streptomyces sindenensis (ATCC 12392); details: ATCC 12392, 4 h
Procedure: as §2, §3, §4

[11] = test system: Bacillus subtilis (ATCC 6633); details: ATCC 6633, 4 h
Procedure: as §2, §3, §4

[12] = test system: Acinetobacter baumannii (ATCC 19606); details: ATCC 19606, 4 h
Procedure: as §2, §3, §4

[13] = test system: Enterococcus faecalis (ATCC 19433); details: ATCC 19433, 4 h
Procedure: as §2, §3, §4

[14] = test system: Enterobacter aerogenes (ATCC 13048); details: ATCC 13048, 4 h
Procedure: as §2, §3, §4

[15] = mark = antibacterial activity increased compared with KU-5878

| Compound | MBC MRSA ([2]; Tables 11-21, no unit printed) | MBC CRPA ([3]; Tables 11-21, no unit printed) | MBC Pseudomonas aeruginosa ([4]; Tables 11-21, no unit printed) | Increase in activity [5, 15] | MBC Staphylococcus aureus ([6]; Tables 11-21, no unit printed) | also measured |
| --- | --- | --- | --- | --- | --- | --- |
| CC[C@H](C)[C@H](NC(=O)CNC(=O)[C@H](CCSC)NC(=O)CNC(=O)[C@@H](NC(=O)[C@H](C)NC(=O)[C@H](CCSC)NC(=O)[C@H](Cc1ccccc1)NC(=O)[C@@H](NC(=O)CNC(=O)[C@H](Cc1ccccc1)NC(=O)[C@@H](CCCCN)NC(=O)CNC(=O)CNC(=O)[C@@H](CCCCN)NC(=O)[C@@H](CCCCN)NC(=O)[C@H](CCSC)NC(=O)[C@H](CCSC)NC(=O)[C@@H](CCCCN)NC(=O)[C@@H](N)CCCCN)[C@@H](C)O)[C@@H](C)CC)C(=O)N[C@@H](CCCNC(=N)N)C(=O)O [KU-5878-K4-D] (H-K[dK]MM[dK][dK]GG[dK]FGTFMAIGMGIR-OH) |  |  |  |  |  | hemolysis of red blood cells [1]: little hemolysis |
| KKMMKKGGKFGTFM-IGMGIR [Peptide 5878-K4-d72A] | 3 µg/mL | 4 µg/mL | 2 µg/mL | ◯ | 2 µg/mL |  |
| KKMMKKGGKFGTFMAI-MGIR [Peptide 5878-K4-d74G] | 3 µg/mL | 4 µg/mL | 2 µg/mL | ◯ | 2 µg/mL |  |
| KKMMKKGGKFGTFMAIG-GIR [Peptide 5878-K4-d75M] | 2 µg/mL | 4 µg/mL | 2 µg/mL | ◯ | 2 µg/mL |  |
| KKMMKKGGKFGTFMAIGM-IR [Peptide 5878-K4-d76G] | 4 µg/mL | 4 µg/mL | 4 µg/mL | ◯ | 4 µg/mL |  |
| KKMMKKGGKFGTFMAIGMG-R [Peptide 5878-K4-d77I] | 4 µg/mL | 6 µg/mL | 4 µg/mL | ◯ | 7 µg/mL |  |
| KKMMKKGGKFGTFMAIGMGI- [Peptide 5878-K4-78R] | 4 µg/mL | 8 µg/mL | 4 µg/mL | ◯ | 10 µg/mL |  |
| KKMMKKGGKFGTFMAIGMGIR [KU-5878-K4] |  |  |  |  |  | hemolysis of red blood cells [1]: little hemolysis; MBC value [7]: 5 µg/mL; MBC value [8]: 5 µg/mL; MBC value [9]: 5 µg/mL; MBC value [10]: 5 µg/mL; MBC value [11]: 5 µg/mL; MBC value [12]: 4 µg/mL; MBC value [13]: 5 µg/mL; MBC value [14]: 5 µg/mL |
| KKMMKKGGTFGTFMAIGMGIR [KU-5878-K3 (T59K, Q62K, S63K)] | 5 µg/mL | 4 µg/mL | 4 µg/mL | ◯ | 4 µg/mL |  |
| KKMMKSGGTFGTFMAIGMGIR [KU-5878-K2(T59K, Q62K)] | 8 µg/mL | 6 µg/mL | 8 µg/mL | ◯ | 8 µg/mL |  |
| KKMMQSGGTFGTFMAIGMGIR [KU-5878-T59K] | 50 µg/mL | 50 µg/mL | 50 µg/mL | ◯ | 40 µg/mL |  |
| KT-MQSGGTFGTFMAIGMGIR [Peptide 5878-d60M] | 100 µg/mL | 90 µg/mL | 90 µg/mL | 0 | 90 µg/mL |  |
| KTMM-SGGTFGTFMAIGMGIR [Peptide 5878-4620] | 100 µg/mL | 100 µg/mL | 100 µg/mL | 0 | 90 µg/mL |  |
| KTMMQS-GTFGTFMAIGMGIR [Peptide 5878-d64G] | 100 µg/mL | 110 µg/mL | 100 µg/mL | 0 | 100 µg/mL |  |
| KTMMQSGG-FGTFMAIGMGIR [Peptide 5878-d66T] | 90 µg/mL | 100 µg/mL | 90 µg/mL | 0 | 90 µg/mL |  |
| KTMMQSGGTF-TFMAIGMGIR [Peptide 5878-d68G] | 25 µg/mL | 18 µg/mL | 25 µg/mL | 0 | 20 µg/mL |  |
| KTMMQSGGTFGTFMAI-MGIR [Peptide 5878-d74G] | 25 µg/mL | 30 µg/mL | 20 µg/mL | 0 | 25 µg/mL |  |
| KTMMQSGGTFGTFMAIG-GIR [Peptide 5878-d75M] | 110 µg/mL | 100 µg/mL | 100 µg/mL | 0 | 100 µg/mL |  |
| KTMMQSGGTFGTFMAIGM-IR [Peptide 5878-d76G] | 90 µg/mL | 90 µg/mL | 80 µg/mL | 0 | 70 µg/mL |  |
| KTMMQSGGTFGTFMAIGMGIRKK [Peptide 5878-KK] | 16 µg/mL | 16 µg/mL | 15 µg/mL | ◯ | 16 µg/mL |  |
| KTMMQSGGTFGTFMAIGMGIRRRR [Peptide 5878-3R] | 10 µg/mL | 8 µg/mL | 8 µg/mL | ◯ | 8 µg/mL |  |
| TKMMKKGGKFGTFMAIGMGIR [Peptide K4-K58T] | 4 | 3 | 3 | ◯ | 3 |  |
| d 58K 60M 71M 72A (MKKGGKFGTF) |  |  |  |  |  | MBC MRSA ([2]; MRSA): 20 µg/mL; MBC CRPA ([3]; CRPA): 20 µg/mL; MBC Pseudomonas aeruginosa ([4]; Pseudomonas aeruginosa): 20 µg/mL; Increase in activity ([5]; compared with KU-5878): ◯; MBC Staphylococcus aureus ([6]; Staphylococcus aureus): 15 µg/mL |
| d 58K 64G 72A 75M (GKFGTFM) |  |  |  |  |  | MBC MRSA ([2]; MRSA): 8 µg/mL; MBC CRPA ([3]; CRPA): 8 µg/mL; MBC Pseudomonas aeruginosa ([4]; Pseudomonas aeruginosa): 6 µg/mL; Increase in activity ([5]; compared with KU-5878): ◯; MBC Staphylococcus aureus ([6]; Staphylococcus aureus): 6 µg/mL |
| d 60M 61M 71M 75M (KKGGKFGTF) |  |  |  |  |  | MBC MRSA ([2]; MRSA): 2 µg/mL; MBC CRPA ([3]; CRPA): 2 µg/mL; MBC Pseudomonas aeruginosa ([4]; Pseudomonas aeruginosa): 2 µg/mL; Increase in activity ([5]; compared with KU-5878): ◯; MBC Staphylococcus aureus ([6]; Staphylococcus aureus): 1 µg/mL |
| d 60M 62K 71M 75M (KGGKFGTF) |  |  |  |  |  | MBC MRSA ([2]; MRSA): 3 µg/mL; MBC CRPA ([3]; CRPA): 3 µg/mL; MBC Pseudomonas aeruginosa ([4]; Pseudomonas aeruginosa): 2 µg/mL; Increase in activity ([5]; compared with KU-5878): ◯; MBC Staphylococcus aureus ([6]; Staphylococcus aureus): 2 µg/mL |
| d 60M 69T 71M 75M (MKKGGKFG) |  |  |  |  |  | MBC MRSA ([2]; MRSA): 2 µg/mL; MBC CRPA ([3]; CRPA): 2 µg/mL; MBC Pseudomonas aeruginosa ([4]; Pseudomonas aeruginosa): 2 µg/mL; Increase in activity ([5]; compared with KU-5878): ◯; MBC Staphylococcus aureus ([6]; Staphylococcus aureus): 1 µg/mL |
| d 60M 71M 72A 75M (MKKGGKFGTF) |  |  |  |  |  | MBC MRSA ([2]; MRSA): 3 µg/mL; MBC CRPA ([3]; CRPA): 2 µg/mL; MBC Pseudomonas aeruginosa ([4]; Pseudomonas aeruginosa): 2 µg/mL; Increase in activity ([5]; compared with KU-5878): ◯; MBC Staphylococcus aureus ([6]; Staphylococcus aureus): 1 µg/mL |
